{"source": "patent US4764461A", "about": "“Tellurium and selenium compounds for the induction of in vivo and in vitro production of cytokines” (priority 1987, dated 1988)", "key": {"CSF; mouse spleen cells": {"test_system": "CSF; mouse spleen cells", "assay": "In vitro induction of colony stimulating factor (CSF) from mouse spleen cells (Example 7)", "format": "cell-based, Balb-c mice", "conditions": "baseline 70-80 colonies/dish", "procedure": "(§1) This example describes the in vitro making of IL-2 and CSF from mouse spleen cells using the compound of Example 1 as the extrinsic stimulating agent.\n(§2) Spleens were removed from 15, male Balb-c mice 6 to 8 weeks of age. The spleen cells were pushed through stainless steel 60 mesh (U.S. standard) nets resting in […] Petri dishes containing PBS in order to separate the cells. The cells were then collected into centrifuge tubes and spun at 1000 rpm for 10 minutes. The supernatant was discarded and cells were treated with 5 ml of hypotonic buffer (0.15MNH4 Cl; 0.01M KHCO3 dissolved in double distilled water, pH 7.2) for exactly two minutes. Thereafter, PBS was added to the cells and the test tubes were centrifuged for 10 minutes at 1000 rpm. The cells were rinsed twice and counted in a heamocytometer using trypan blue to test for viability. The cells were brought to a concentration of 10^7 viable cells/ml. The cells were contacted with varying amounts of the compound of Example 1 in 1 ml of 40% DMSO 60% PBS."}, "fibrosarcoma cells": {"test_system": "fibrosarcoma cells", "assay": "Survival of mice with methylcholanthrene-induced fibrosarcoma cells (Example 6)", "format": "in vivo, Balb-c mice", "conditions": "until just after the increased dosage regimen (day 39)", "procedure": "Balb-c mice, age 7 weeks were injected with methylcholanthrene to induce the formation of fibrosarcoma cells according to the procedure of Example 5. The test animals were divided into two groups.\n(a) control (0.2 IP of 40% DMSO and 60% PBS)"}, "West Nile virus (WNV) [1]": {"test_system": "West Nile virus (WNV)", "assay": "WNV yield in mouse macrophage cultures (Example 23)", "format": "cell-based, WNV in ICR mouse macrophages", "conditions": "for Virus Yield (PFU/ml): virus alone 2 × 10^4 /ml", "procedure": "Varying amounts of the compound of Example 1 (5 μg, 1 μg, 0.1 μg) were incubated with a monolayer of mouse macrophages for 24 h. […] All cultures were then infected with 10^4 PFU/plate. After 72 h incubation the supernatants were collected and the virus was titrated against Vera cells."}, "IL-2; mouse spleen cells": {"test_system": "IL-2; mouse spleen cells", "assay": "In vitro induction of IL-2 from mouse spleen cells (Example 7)", "format": "cell-based, Balb-c mice", "conditions": "baseline 4,000-5,000 CPM", "procedure": "as §1, §2"}, "[2]": {"test_system": "IL-2; human mononuclear cells", "assay": "IL-2 activity of human mononuclear cell supernatants on CTLD cells (Example 8)", "format": "cell-based", "conditions": "control CTLD cells 3,500", "procedure": "Human mononuclear cells were obtained as described above and cultured for 72 hours at a concentration of 10^6 cells/ml enriched RPMI, in the presence of varying concentrations of the compound of Example 1. Culture supernatants were collected, centrifuged and tested for IL-2 activity by using 50% of the volume of the supernatant assaying their ability to support the proliferation of the IL-2 dependent cell line CTLD."}, "[3]": {"test_system": "IL-2; human mononuclear cells", "assay": "IL-2 production by human mononuclear cells of normal donors and systemic lupus patients, with or without PHA (Example 20)", "format": "cell-based", "procedure": "Using the procedure of Example 4, human mononuclear cells were tested for their ability to produce IL-2 after induction with PHA or in unstimulated cells from normal donors and from patients suffering from systemic lupus erthyrematous. The IL-2 content was tested according to the procedure of Example 3 using the CTLD IL-2 dependent cell line.\n*Dilution of 1 part of 0.2 ml of PBS containing 5 μg of compound of Ex\n**CPM × 10^-3 of ^3 H Thymidine of 5 × 10^4 CTLD\ncells in presence of 1:2 dilution of the supernatants as in Ex. 3. PG,4"}, "mice": {"test_system": "mice", "assay": "Preliminary toxicity studies in mice", "format": "in vivo", "conditions": "6 week old mice", "procedure": "The compounds may be used as anti-bacterial or anti-viral agents in plants or in animals. Virus infections such as West Nile virus infections in mice are susceptible to the compound of the Example 1 at a dose of 10 μg/day/mouse. Plant bacterial infections such as crown gall caused by Agrobacterium tumefaciens may be treated or prevented by the application of a 0.1% solution of compounds of the invention."}, "IL-2": {"test_system": "IL-2", "assay": "Oral administration: induction of lymphokines, IL-2 content of spleen cell supernatants (Example 13)", "format": "in vivo, Balb-C mice", "conditions": "for IL-2, percent increase as compared to control: 4 days", "procedure": "The water solution was prepared by dissolving the compounds in PBS at a concentration of 50 μg/ml PBS and diluting the resulting solution to the desired concentration. The compounds were administered over a 4 day period. The exact amount of liquid intake was recorded daily. […] The cells were incubated at a concentration of 10^7 cells/ml in enriched RPMI containing 2 μg/ml of con-A for 24 hours at 37° C. The supernatants were collected and tested for IL-2 content.\nAfter 24 hours the mice were sacrificed and the spleens were processed as described above."}, "West Nile virus (WNV) [4]": {"test_system": "West Nile virus (WNV)", "assay": "West Nile virus infection in mice (Example 22)", "format": "in vivo, ICR mice", "procedure": "The effect of the compound of Example 1 on an infection with West Nile virus (WNV) was determined. WNV is a toga virus of the flavivirus group, a positive single stranded RNA virus, which when injected IP to mice usually kills them within 5-8 days as a result of extensive damage to the central nervous system. For this study ICR mice (3 wks of age) were injected IP with the virus at the concentration of 10^3 or 10^4 LD 50 units/mouse. Injections of 10 μg/0.2 ml PBS/mouse of the compound of Ex. 1 were given on day -1 (one day prior to injection of virus) and 6 days after injection of virus.\nIn a second experiment, mice were injected with 10^3 IPLD50 virus and received injections of the compound of Example 1 (1 μg/0.2 ml PBS/mouse) on days -1, 1, 2 and 4."}, "IL-2; spleen cells": {"test_system": "IL-2; spleen cells", "assay": "In vitro IL-2 secretion of mouse spleen cells, CTLD assay (Example 17)", "format": "cell-based, Balb/c mice", "conditions": "IL-2 activity, 24 h; control 2,550", "procedure": "The compounds listed below were tested in vitro at various concentrations that ranged from 10 μg/ml cells to 1×10^-6 μg/ml of cell mixtures. Cells were obtained from spleens of male Balb/c mice 6-8 weeks of age. Spleens were pushed through a stainless steel 60 mesh strainer to separate cells."}}, "note": "Several values for one entry are separate records, joined by “and”; a condition that tells them apart may be missing. Equal values may be shown once. Entries after “also recorded” stand apart in the source; their conditions may differ."}
{"molecule": "Cl[TeH]1(Cl)(Cl)OCCO1", "note": "[Example 1]", "values": [{"measurement": "CSF (colonies/dish)", "setting": "CSF; mouse spleen cells; 5 pg", "result": 140, "unit": "colonies/dish"}, {"measurement": "CSF (colonies/dish)", "setting": "CSF; mouse spleen cells; 50 pg", "result": 260, "unit": "colonies/dish"}, {"measurement": "CSF (colonies/dish)", "setting": "CSF; mouse spleen cells; 5 ng", "result": 120, "unit": "colonies/dish"}, {"measurement": "CSF (colonies/dish)", "setting": "CSF; mouse spleen cells; 50 ng", "result": 75, "unit": "colonies/dish"}, {"measurement": "CSF (colonies/dish)", "setting": "CSF; mouse spleen cells; 500 ng", "result": 25, "unit": "colonies/dish"}, {"measurement": "CSF (colonies/dish)", "setting": "CSF; mouse spleen cells; 5 μg", "result": 5, "unit": "colonies/dish"}, {"measurement": "CSF (colonies/dish)", "setting": "CSF; mouse spleen cells; 50 μg", "result": 2, "unit": "colonies/dish"}, {"measurement": "mortality results for group (b)", "setting": "fibrosarcoma cells", "result": 0, "unit": "%"}, {"measurement": "reduction in virus yield", "setting": "West Nile virus (WNV) [1]; 0.1 μg", "result": "ten"}, {"measurement": "Virus Yield (PFU/ml)", "setting": "West Nile virus (WNV) [1]; 0.1 μg/plate", "result": "2 × 10^3 PFU/ml"}, {"measurement": "Virus Yield (PFU/ml)", "setting": "West Nile virus (WNV) [1]; 1 μg/plate", "result": "5 × 10^2 PFU/ml"}, {"measurement": "IL-2 (cpm)", "setting": "IL-2; mouse spleen cells; 5 pg", "result": "12,000 cpm"}, {"measurement": "IL-2 (cpm)", "setting": "IL-2; mouse spleen cells; 50 pg", "result": "38,000 cpm"}, {"measurement": "IL-2 (cpm)", "setting": "IL-2; mouse spleen cells; 500 pg", "result": "30,000 cpm"}, {"measurement": "IL-2 (cpm)", "setting": "IL-2; mouse spleen cells; 5 ng", "result": "15,000 cpm"}, {"measurement": "IL-2 (cpm)", "setting": "IL-2; mouse spleen cells; 50 ng", "result": "6,000 cpm"}, {"measurement": "IL-2 (cpm)", "setting": "IL-2; mouse spleen cells; 500 ng", "result": "5,000 cpm"}, {"measurement": "IL-2 (cpm)", "setting": "IL-2; mouse spleen cells; 5 μg", "result": "5,000 cpm"}, {"measurement": "IL-2 (cpm)", "setting": "IL-2; mouse spleen cells; 50 μg", "result": "5,000 cpm"}, {"measurement": "IL-2 activity, Counts per minute", "setting": "[2]; 1 ng", "result": "11,000 Counts per minute"}, {"measurement": "IL-2 activity, Counts per minute", "setting": "[2]; 10 ng", "result": "1,500 Counts per minute"}, {"measurement": "IL-2 activity, Counts per minute", "setting": "[2]; 1 μg", "result": 250, "unit": "Counts per minute"}, {"measurement": "IL-2 activity, Counts per minute", "setting": "[2]; 100 μg", "result": 280, "unit": "Counts per minute"}, {"measurement": "IL-2 production, CPM × 10^-3 of 3H thymidine", "setting": "[3]; SLE, PHA +, 5 μg 0.2 ml PBS", "result": "6.3 CPM × 10^-3 and 8.2 CPM × 10^-3 and 4.1 CPM × 10^-3"}, {"measurement": "IL-2 production, CPM × 10^-3 of 3H thymidine", "setting": "[3]; SLE, PHA +, 1:100 PBS", "result": 24.0, "unit": "CPM × 10^-3"}, {"measurement": "IL-2 production, CPM × 10^-3 of 3H thymidine", "setting": "[3]; SLE, PHA -, 5 μg 0.2 ml PBS", "result": "2.0 CPM × 10^-3 and 2.4 CPM × 10^-3"}, {"measurement": "IL-2 production, CPM × 10^-3 of 3H thymidine", "setting": "[3]; normal, PHA -, 5 μg 0.2 ml PBS", "result": "2.3 CPM × 10^-3 and 2.1 CPM × 10^-3"}, {"measurement": "LD50", "setting": "mice", "result": "300 ug./25 g of body weight"}, {"measurement": "IL-2, percent increase as compared to control", "setting": "IL-2; 1 μg/ml drinking water", "result": 50, "unit": "%"}, {"measurement": "inducing lymphokine production", "setting": "IL-2; given in dry form or when hydrolyzed in an aqueous diluent", "result": "active for inducing lymphokine production"}, {"measurement": "West Nile virus infections in mice", "setting": "West Nile virus (WNV) [4]; 10 μg/day/mouse", "result": "susceptible"}, {"measurement": "animals remained alive after 8 days", "setting": "West Nile virus (WNV) [4]; 10^3 or 10^4 LD50 virus, 10 μg/mouse", "result": "three out of five"}, {"measurement": "# Alive/Total Animals", "setting": "West Nile virus (WNV) [4]; Table A, no virus (0), compound alone", "result": "6/6"}, {"measurement": "further survival of the remaining three mice", "setting": "West Nile virus (WNV) [4]; second experiment, after day 8", "result": "Two out of the remaining three survived an additional 8 days; also recorded: the third remained alive without any manifestations of clinical symptoms"}, {"measurement": "# Alive/Total", "setting": "West Nile virus (WNV) [4]; second experiment, day 8, 10^3 IPLD50 virus, 1 μg/mouse on days -1, 1, 2 and 4, virus alone 0/8", "result": "3 out of 5 and 3/5"}, {"measurement": "# Alive/Total", "setting": "West Nile virus (WNV) [4]; second experiment, day 8, compound alone, no virus", "result": "5/5"}]}
{"molecule": "Cl[Te]1(Cl)OCCO1", "note": "[Example 2]", "values": [{"measurement": "Spleen Cells (cpm)", "setting": "IL-2; spleen cells", "result": "18,000 cpm"}, {"measurement": "IL-2, percent increase as compared to control", "setting": "IL-2; 1 μg/ml drinking water", "result": 30, "unit": "%"}, {"measurement": "IL-2, percent increase as compared to control", "setting": "IL-2; 25 μg/ml drinking water", "result": 35, "unit": "%"}]}
{"molecule": "CC(=O)O[Te](OC(C)=O)(c1ccccc1)c1ccccc1", "note": "[Ph2 Te(OCOCH3)2]", "values": [{"measurement": "Spleen Cells (cpm)", "setting": "IL-2; spleen cells", "result": "3,500 cpm"}]}
{"molecule": "O=C(O[Te](OC(=O)c1ccccc1)(c1ccccc1)c1ccccc1)c1ccccc1", "note": "[Ph2 Te(OCOPh)2]", "values": [{"measurement": "Spleen Cells (cpm)", "setting": "IL-2; spleen cells", "result": "4,300 cpm"}]}
{"molecule": "Cl[Te](Cl)(c1ccccc1)c1ccccc1", "note": "[Ph2 TeCl2]", "values": [{"measurement": "Spleen Cells (cpm)", "setting": "IL-2; spleen cells", "result": "2,300 cpm"}]}
{"molecule": "Cl[Te](Cl)(Cl)c1ccccc1", "note": "[PhTeCl3]", "values": [{"measurement": "Spleen Cells (cpm)", "setting": "IL-2; spleen cells", "result": "18,000 cpm"}]}
{"molecule": "Ph2 TeCl", "values": [{"measurement": "Spleen Cells (cpm)", "setting": "IL-2; spleen cells", "result": "2,100 cpm"}]}
